20 compounds from patent US20250034165A1, “COMPOUND CONTAINING CYCLOALKYL OR HALOALKYL” (CHIA TAI TIANQING PHARMACEUTICAL GROUP CO., LTD., priority 2021, published 2025) can be followed below.

Bounds are passed on as bounds.

In data set [1] the test system is BAF3-EGFR (L858R/T790M/C797S) cells. The experiment in a line: Inhibition of proliferation of BAF3-EGFR (L858R/T790M/C797S) cells, CCK-8. It is filed as cell-based. Conditions: Ba/F3 EGFR, 72 h, read-out: BAF3(EGFR T790M L858R C797S) cell inhibitory activity IC50. The method in brief: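 BaF3 EGFR L858R/T790M/C797S cells seeded at 1.5×10^5 cells/mL in RPMI + 10% FBS, 37 °C, compound added after overnight, duplicates. Viability by CCK-8; % inhibition vs untreated and blank, IC50 by four-parameter fit.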

In data set [2] the target is EGFR (d746-750/T790M/C797S) (Homo sapiens (Human), UniProt P00533, C797S/DEL746-750/T790M). The experiment in a line: Inhibitory activity for EGFR (d746-750/T790M/C797S) kinase. It is filed as biochemical. Conditions: ATP 5 μM; read-out: EGFR(d19/T790M/C797S) (IC50). The method in brief: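 EGFR d746-750/T790M/C797S (0.03 ng/μL final) preincubated 30 min with compound (10 nM–0.0024 nM, 4-fold, 7 points). Reaction with 5 μM ATP and 0.1 μM ULight-poly GT, 2 h at room temperature; EDTA stop, Eu-anti-phosphotyrosine TR-FRET read at 665 nm, IC50 by four-parameter fit.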

The target of data set [3] is EGFR (d746-750 (d19)/T790M) (Homo sapiens (Human), UniProt P00533, DEL746-750/T790M). Description: Inhibitory activity for EGFR (d746-750 (d19)/T790M) kinase. The settings on record: ATP 5 μM. It counts as biochemical. In a few lines: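 Recombinant EGFR d746-750/T790M (0.003 ng/μL final) preincubated 30 min with compound (10 to 0.0024 nM, 4-fold steps), then 5 μM ATP and 0.1 μM ULight-poly GT added for 2 h at room temperature. EDTA stop, Eu-anti-phosphotyrosine TR-FRET read (665 nm); IC50 by four-parameter fit.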

Data set [4] is described as follows: In vitro stability in liver microsomes. It is filed as in vitro ADME. Conditions: Human liver microsome. The method, then: 300 μL of the final incubation system contains 30 μL of liver microsomes (protein concentration: 0.15 mg/mL), 30 μL of NADPH+MgCl2, 3 μL of the test compound (in acetonitrile), and 237 μL of PBS buffer (pH 7.4). The proportion of the organic solvent (acetonitrile) was 1%. Samples were prepared in duplicate of 0.3 mL for each species (e.g., human or mouse liver microsomes). Tubes each containing 270 μL of a mixed solution of substrate and enzyme […] were pre-incubated at 37° C. for 5 min. 30 μL of NADPH+MgCl2 was added and the mixture was mixed. 50 μL of the mixture was taken at 0 min, 15 min, 30 min, and 60 min, and 300 μL of glacial acetonitrile containing an internal standard was added to terminate the reaction.
50 μL of the incubated sample was added with 300 μL of glacial acetonitrile containing an internal standard (20 ng/mL diazepam) for precipitation. The mixture was vortexed for 5 min, and centrifuged (12,000 rpm, 4° C.) for 10 min. 75 μL of supernatant was taken and diluted with 75 μL of ultrapure water. After being homogeneously mixed, 0.5 μL of the resulting sample was injected for analysis.
In general terms: Microsomes from liver hold many membrane-bound enzymes, among them those of drug oxidation.

Data set [5] concerns BAF3-EGFR (del19/T790M/C797S) cells. The experiment in a line: Inhibition of proliferation of BAF3-EGFR (Del19/T790M/C797S) cells, CCK-8. It counts as cell-based. Conditions: Ba/F3 EGFR-Del19/T790M/C797S, 72 h, read-out: BAF3(EGFR T790M Del19 C797S) cell inhibitory activity IC50. The method, then: A flask of BAF3-EGFR (del19/T790M/C797S) cells in the logarithmic growth phase and good conditions was taken, and the cells were collected and added to a centrifuge tube. 20 μL of cells were taken and counted, and the required number of cells (mL) was pipetted and centrifuged at 1200 rpm for 3 min. The supernatant was discarded, and an appropriate amount of plating medium (RPMI medium+10% FBS) was added to adjust the cell density to 1.0×10^5 cells/mL. The cells were seeded on a 96-well plate at 100 μL/well using a multi-channel pipette and cultured in a cell incubator at 37° C., 5% CO2 with saturated humidity. After overnight incubation, compounds were loaded using a nanoliter pipettor, 2 duplicate wells were set for each concentration, and cells without compound added were used as negative controls.
(§1) Inhibition rate (%)=(mean value of negative control group-mean value of experimental group)/(mean value of negative control group−mean value of blank group)×100%.
(§2) A dose-response curve was fitted by four-parameter analysis, with the logarithm of compound concentration serving as abscissa and inhibition rate serving as ordinate, such that IC50 was calculated.

The subject of data set [6] is PC-9 EGFR-Del19-T790M-C797S cells. Description: Inhibition of proliferation of PC-9-EGFR (Del19 T790M C797S) cells, CCK-8. It counts as cell-based. Conditions: 72 h, read-out: PC-9-EGFR (Del19 T790M C797S) cell inhibitory activity IC50. The protocol: PC-9 EGFR-Del19-T790M-C797S cells in the logarithmic growth phase and good conditions were taken, washed with PBS, digested with pancreatin, terminated with a complete medium, collected and added to a centrifuge tube, adjusted to a cell density of 2×10^4 cells/mL, and seeded in a 96-well plate (100 μL/well). Meanwhile, compounds were loaded using a nanoliter pipettor resulting in the final concentrations of the compounds of 1000 nM-0.06 nM, and a control was set, replicate wells for each concentration. After 72 h of incubation in the cell incubator, the assay reagent CCK-8 (manufacturer: Dojindo Laboratories, Beijing; 10 μL/well) was added. After 2 h of incubation in the cell incubator, absorbance was measured at 450 nm on a PerkinElmer Envision microplate reader, and the inhibition rate was calculated.
as §1, §2

Chain of EGFR (d746-750/T790M/C797S) (P00533 other isoform, or with tags, fused parts or gaps T790M/C797S/del 1-694/del 746-750 limits assumed): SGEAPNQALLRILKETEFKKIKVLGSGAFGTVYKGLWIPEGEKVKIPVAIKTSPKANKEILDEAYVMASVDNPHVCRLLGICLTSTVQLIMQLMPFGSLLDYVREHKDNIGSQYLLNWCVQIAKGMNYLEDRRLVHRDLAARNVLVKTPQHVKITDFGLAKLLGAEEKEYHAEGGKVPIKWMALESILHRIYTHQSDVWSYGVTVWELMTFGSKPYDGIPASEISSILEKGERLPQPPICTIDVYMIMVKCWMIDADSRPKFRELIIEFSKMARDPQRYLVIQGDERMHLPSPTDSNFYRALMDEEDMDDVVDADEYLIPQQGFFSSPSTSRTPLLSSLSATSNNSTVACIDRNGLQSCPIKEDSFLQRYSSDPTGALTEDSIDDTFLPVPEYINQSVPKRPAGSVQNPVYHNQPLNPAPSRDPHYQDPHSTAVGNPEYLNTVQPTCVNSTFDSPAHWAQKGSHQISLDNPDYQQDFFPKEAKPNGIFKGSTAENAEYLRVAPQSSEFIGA
Chain of EGFR (d746-750 (d19)/T790M) (P00533 other isoform, or with tags, fused parts or gaps T790M/del 1-668/del 746-750 limits assumed): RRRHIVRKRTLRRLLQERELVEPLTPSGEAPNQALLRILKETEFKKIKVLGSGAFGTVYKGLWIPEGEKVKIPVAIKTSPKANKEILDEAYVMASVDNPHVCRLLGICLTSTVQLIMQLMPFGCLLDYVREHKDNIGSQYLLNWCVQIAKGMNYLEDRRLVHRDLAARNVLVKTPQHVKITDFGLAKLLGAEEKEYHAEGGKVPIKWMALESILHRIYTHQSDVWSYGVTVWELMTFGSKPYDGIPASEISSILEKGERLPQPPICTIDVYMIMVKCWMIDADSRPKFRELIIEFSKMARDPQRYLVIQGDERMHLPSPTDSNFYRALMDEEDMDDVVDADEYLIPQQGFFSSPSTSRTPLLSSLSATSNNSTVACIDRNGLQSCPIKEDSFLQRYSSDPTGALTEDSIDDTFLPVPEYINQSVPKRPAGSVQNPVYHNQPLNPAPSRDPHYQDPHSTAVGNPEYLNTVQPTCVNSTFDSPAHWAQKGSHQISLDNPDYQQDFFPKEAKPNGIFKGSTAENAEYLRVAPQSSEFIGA

Regarding `Cc1cc2cc(n1)-c1cnn(C)c1OCCC[C@@H](C1CC1)CN1/C(=N/C2=O)Nc2cc(NCCN3CCCC3)ccc21` [Example 72], the IC50 in data set [1] is less than 5 nM; in data set [2], 0.013 nM; in data set [3], 0.011 nM; in data set [5], less than 1 nM. The “Stability in liver microsomes (residual %, T = 60 min)” value (shortened to “Stability … (residual %, T = 60 min)”) in data set [4] is given as 64.73%.

Take `Cc1cc2cc(n1)-c1cnn(C)c1OCCC[C@@H](C1CC1)CN1/C(=N/C2=O)Nc2cc(NCCCN(C)C)ccc21` [Example 44]: the IC50 in data set [1] is less than 5 nM; in data set [2] it was 0.012 nM; in data set [3], 0.0081 nM; in data set [5], less than 1 nM; in data set [6], less than 50 nM. The “Stability … (residual %, T = 60 min)” value in data set [4] is reported as 80.24%.

With `Cc1cc2cc(n1)-c1cnn(C)c1OCCC[C@@H](C1CC1)CN1/C(=N/C2=O)Nc2cc(N[C@@H]3CC[C@H](N(C)C)C3)ccc21` [Example 133], the IC50 is less than 5 nM in data set [1] and 0.097 nM in data set [2]. The “Stability … (residual %, T = 60 min)” value in data set [4] was determined as 95.34%.

As to `Cc1cc2cc(n1)-c1cnn(C)c1OCCC[C@@H](C1CC1)CN1/C(=N/C2=O)Nc2cc(N[C@H]3CC[C@H](N(C)C)C3)ccc21` [Example 135], the IC50 in data set [1] is less than 5 nM; in data set [2], 0.062 nM; in data set [6], less than 50 nM. In data set [4], the “Stability … (residual %, T = 60 min)” value is on record as 97.30%.

Regarding `CCN1CCC(Nc2ccc3c(c2)N/C2=N\C(=O)c4cc(C)nc(c4)-c4cnn(C)c4OCCC[C@@H](C4CC4)CN23)CC1` [Example 48], the IC50 in data set [1] is less than 5 nM; in data set [2] it was 0.027 nM; in data set [3] it was 0.017 nM; in data set [5] it was less than 1 nM; in data set [6], less than 50 nM. Further, the “Stability … (residual %, T = 60 min)” value in data set [4] is listed as 95.68%.

In the case of `Cc1cc2cc(n1)-c1cnn(C)c1OCCC[C@@H](C1CC1)CN1/C(=N/C2=O)Nc2ccc(N[C@H]3CC[C@@H](N(C)C)C3)cc21` [Example 132], the figures for the IC50 in data set [1], in data set [2] and in data set [6] were less than 5 nM, 0.066 nM and less than 50 nM, respectively. Besides, the “Stability … (residual %, T = 60 min)” value in data set [4] amounted to 63.76%.

Consider `Cc1cc2cc(n1)-c1cnn(C)c1OCCC[C@@H](C1CC1)CN1/C(=N/C2=O)Nc2cc(N[C@H]3C[C@H](N(C)C)C3)ccc21` [Example 126], for which the IC50 is less than 5 nM in data set [1], 0.073 nM in data set [2] and less than 50 nM in data set [6]. Moreover, in data set [4], the “Stability … (residual %, T = 60 min)” value amounted to 83.66%.

Turning to `Cc1cc2cc(n1)-c1cnn(C)c1OCCC[C@@H](C1CC1)CN1/C(=N/C2=O)Nc2ccc(N[C@@H]3CC[C@@H](N(C)C)C3)cc21` [Example 130], the IC50 is less than 5 nM in data set [1] and 0.056 nM in data set [2]. For the same compound, the “Stability … (residual %, T = 60 min)” value in data set [4] was 56.81%.

With `Cc1cc2cc(n1)-c1cnn(C)c1OCCC[C@@H](C1CC1)CN1/C(=N/C2=O)Nc2cc(N[C@@H]3CC[C@@H](N(C)C)C3)ccc21` [Example 129], the IC50 in data set [2] was found to be 0.065 nM. For the same compound, the “Stability … (residual %, T = 60 min)” value in data set [4] amounted to 92.24%.

Regarding `Cc1cc2cc(n1)-c1cnn(C)c1OCCC[C@@H](C1CC1)CN1/C(=N/C2=O)Nc2ccc(N[C@H]3CC[C@H](N(C)C)CC3)cc21` [Example 100], the IC50 is less than 5 nM in data set [1], 0.092 nM in data set [3] and less than 50 nM in data set [6]. Besides, in data set [4], the “Stability … (residual %, T = 60 min)” value is recorded as 82.55%.

Turning to `Cc1cc2cc(n1)-c1cnn(C)c1OCCC[C@@H](C1CC1)CN1/C(=N/C2=O)Nc2ccc(NC(=O)CCN(C)C)cc21` [Example 112], the IC50 was less than 5 nM in data set [1], 0.063 nM in data set [2] and less than 50 nM in data set [6]. Moreover, the “Stability … (residual %, T = 60 min)” value in data set [4] came out at 71.24%.

With `Cc1cc2cc(n1)-c1cnn(C)c1OCCC[C@@H](C1CC1)CN1/C(=N/C2=O)Nc2ccc(N[C@H]3CC[C@@H](N(C)C)CC3)cc21` [Example 99], the IC50 is less than 5 nM in data set [1], 0.091 nM in data set [3] and less than 50 nM in data set [6]. In addition, the “Stability … (residual %, T = 60 min)” value in data set [4] was 84.54%.

In the case of `Cc1cc2cc(n1)-c1cnn(C)c1OCCC[C@@H](C1CC1)CN1/C(=N/C2=O)Nc2cc(N[C@H]3C[C@@H](N(C)C)C3)ccc21` [Example 125], the IC50 in data set [2] was 0.08 nM. Also, in data set [4], the “Stability … (residual %, T = 60 min)” value is 93.95%.

For the compound `Cc1cc2cc(n1)-c1cnn(C)c1OCCC[C@@H](C1CC1)CN1/C(=N/C2=O)Nc2ccc(N[C@@H]3CC[C@H](N(C)C)C3)cc21` [Example 134], the IC50 in data set [1] is less than 5 nM; in data set [2], 0.069 nM. Besides, in data set [4], the “Stability … (residual %, T = 60 min)” value was determined as 65.19%.

Consider `Cc1cc2cc(n1)-c1cnn(C)c1OCCC[C@@H](C1CC1)CN1/C(=N/C2=O)Nc2ccc(NC3CCN(C)CC3)cc21` [Example 20], for which the IC50 in data set [2] came out at 0.02 nM; in data set [3], 0.012 nM. Further, the “Stability … (residual %, T = 60 min)” value in data set [4] is 73.66%.

`Cc1cc2cc(n1)-c1cnn(C)c1OCCC[C@@H](C1CC1)CN1/C(=N/C2=O)Nc2cc(N[C@H]3CC[C@@H](N(C)C)C3)ccc21` [Example 131]: the IC50 in data set [1] is less than 5 nM; in data set [2], 0.08 nM; in data set [6], less than 50 nM. In addition, the “Stability … (residual %, T = 60 min)” value in data set [4] amounted to 95.64%.

With `Cc1cc2cc(n1)-c1cnn(C)c1OCCC[C@@H](C1CC1)CN1/C(=N/C2=O)Nc2cc(NCCCN3CCCC3)ccc21` [Example 70], the values for the IC50 in data set [1], in data set [2] and in data set [3] were less than 5 nM, 0.04 nM and 0.013 nM, respectively. For the same compound, in data set [4], the “Stability … (residual %, T = 60 min)” value turned out to be 81.11%.

In the case of `Cc1cc2cc(n1)-c1cnn(C)c1OCCC[C@@H](C1CC1)CN1/C(=N/C2=O)Nc2ccc(N[C@H]3C[C@@H](N(C)C)C3)cc21` [Example 127], the results for the IC50 in data set [3] and in data set [6] were 0.12 nM and less than 50 nM, respectively. The “Stability … (residual %, T = 60 min)” value in data set [4] is 75.00%.

With `Cc1cc2cc(n1)-c1cnn(C)c1OCCC[C@@H](C1CC1)CN1/C(=N/C2=O)Nc2cc(NC3CCN(C)CC3)ccc21` [Example 10], the IC50 in data set [1] was less than 5 nM; in data set [2], 0.023 nM; in data set [3] it was 0.014 nM; in data set [6], less than 50 nM. In addition, the “Stability … (residual %, T = 60 min)” value in data set [4] is reported as 94.30%.

As to `Cc1cc2cc(n1)-c1cnn(C)c1OCCC[C@@H](C1CC1)CN1/C(=N/C2=O)Nc2cc(NC3CN(C)C3)ccc21` [Example 33], the IC50 in data set [2] stood at 0.015 nM; in data set [3], 0.0098 nM. Besides, in data set [4], the “Stability … (residual %, T = 60 min)” value stood at 83.39%.
